In patent US4537776A, “Penetrating topical pharmaceutical compositions containing N-(2-hydroxyethyl) pyrrolidone” (priority 1983, dated 1985):

Experiment: Penetration study, Franz diffusion apparatus, human skin (*)
Assay type: in vitro ADME
Conditions: Example 8; for Reduction of penetration on addition of the compound (in words): results similar to octanoic acid (reduces penetration by 50%)
Description: The following Penetration Studies carried out in the following manner. […] A normal saline solution is added to the lower diffusion cell, abutting the subcutaneous side of the skin. The test composition (comprising a solution of active or actives added to the carrier at the indicated formulation in a conventional manner by thoroughly mixing) is added to the diffusion cell abutting the epidermal side of the skin.
This cell assembly is kept at a constant temperature of about 31° C. At appropriate or desired intervals (these are the time designations given in the following examples) each diffusion cell assembly is opened and the diffusate from the cell abutting the subcutaneous side of the skin is withdrawn. Drug actives in a diffusate is measured using standard analytical techniques. Each trial is run on a separate sample of skin.

CCCCCCCCCCCCCCCCCCO [stearyl alcohol]
Reduction of penetration on addition of the compound (in words): Substantially similar results

CCCCCCCCCC(=O)O [decanoic acid]
Reduction of penetration on addition of the compound (in words): Substantially similar results

CCCCCCCC(=O)O [octanoic acid]
Reduction of penetration on addition of the compound (added to 1% Triamcinolone in Propylene Glycol + 2% C14 OH, human skin, 0-72 hrs.): 50%

CCCCCCCCCCCCCCCCO [cetyl alcohol]
Reduction of penetration on addition of the compound (in words): Substantially similar results
